The record followed here is article PMC10478824, “Development of FAPI Tetramers to Improve Tumor Uptake and Efficacy of FAPI Radioligand Therapy” (Journal of Nuclear Medicine, 2023).

Data set [1] has as its system HT-1080-FAP tumors. Briefly: FAP-targeted radioligand therapy in HT-1080-FAP tumor-bearing mice. It is filed as in vivo. As to the method: (§1) All animal experimental procedures were approved by the Animal Care and Ethics Committee of Xiamen University and performed in accordance with the Guidelines for the Care and Use of Animals of the Xiamen University Laboratory Animal Center. For in vivo experiments, 6-wk-old BALB/c nude mice (Beijing Vital River Laboratory Animal Technology Co., Ltd.) were subcutaneously inoculated with HT-1080-FAP or U87 cells (5 × 10^6 in 100 μL of phosphate-buffered saline) in the right shoulder.
(§2) When the tumor volume reached approximately 100 mm^3, the mice were randomized into 4 groups for radioligand therapy with ^177Lu-labeled monomeric, dimeric, and tetrameric FAPIs (6/group): group A, saline; group B, 29.6 MBq of ^177Lu-FAPI-46; group C, 29.6 MBq of ^177Lu-DOTA-2P(FAPI)2; and group D, 29.6 MBq of ^177Lu-DOTA-4P(FAPI)4. […] HT-1080-FAP, a FAP-transfected tumor xenograft with much higher levels of FAP expression than U87MG, was also used in this study. Therefore, the frequency of administration was higher in U87MG tumor–bearing mice (every 72 h, 3 doses in total) than in the HT-1080-FAP models (a single dose). Weight and tumor volume were monitored every 2 d, and the mice were euthanized when the average tumor volume exceeded 1,500 mm^3, when the tumor was ulcerated, or when weight loss was more than 20%. To further assess radioligand therapy–related toxicity effects, the main organs were collected from the ^177Lu-DOTA-4P(FAPI)4 group on day 22 after hematoxylin and eosin staining ([16]).

The test system of data set [2] is HT-1080-FAP tumors. Briefly: Ex vivo biodistribution of ^177Lu-labeled FAPIs in HT-1080-FAP tumor-bearing mice. As to conditions: for tumor uptake: HT-1080-FAP tumors. As to the method:
as §1
Three groups of HT-1080-FAP mice were injected with 0.74 MBq of ^177Lu-FAPI-46, ^177Lu-DOTA-2P(FAPI)2, or ^177Lu-DOTA-4P(FAPI)4 and were euthanized at different time points (24–48 h for monomers and 24–96 h for dimers and tetramers, 3/group). Blood, tumor, muscle, and major organs were weighed and measured using a γ-counter (WIZARD^2 2480). Data were normalized to the percentage injected dose per gram (%ID/g) using 1% of total counts.

Another data set has as its system U87MG tumors. Description: FAP-targeted radioligand therapy in U87MG tumor-bearing mice. The format is in vivo. The note with it: 29.6 MBq every 72 h, 3 doses. As to the method:
as §1
as §2, with “To further assess radioligand therapy–related toxicity effects, the main organs were collected from the ^177Lu-DOTA-4P(FAPI)4 group on day 22 after hematoxylin and eosin staining ([16]).” left out

Data set [3] is described as follows: In vitro stability in phosphate-buffered saline and fetal bovine serum (radio-HPLC). It is filed as in vitro ADME. As to conditions: 24 h incubation in phosphate-buffered saline and fetal bovine serum.
Setting [4] is: HT-1080-FAP tumor-bearing mice, 48 h after injection.

As to `CN(CCCN1CCN(C(=O)COCCOCCOCCNC(=O)CCC(=O)NCCCC[C@H](NC(=O)CCC(=O)NCCOCCOCCOCC(=O)N2CCN(CCCN(C)c3ccc4nccc(C(=O)NCC(=O)N5CC(F)(F)C[C@H]5C#N)c4c3)CC2)C(=O)NCCCC[C@H](NC(=O)[C@H](CCCCNC(=O)CN2CCN(CC(=O)[O-])CCN(CC(=O)[O-])CCN(CC(=O)[O-])CC2)NC(=O)CCC(=O)NCCOCCOCCOCC(=O)N2CCN(CCCN(C)c3ccc4nccc(C(=O)NCC(=O)N5CC(F)(F)C[C@H]5C#N)c4c3)CC2)C(=O)NCCOCCOCCOCC(=O)N2CCN(CCCN(C)c3ccc4nccc(C(=O)NCC(=O)N5CC(F)(F)C[C@H]5C#N)c4c3)CC2)CC1)c1ccc2nccc(C(=O)NCC(=O)N3CC(F)(F)C[C@H]3C#N)c2c1.[177Lu+3]` [^177Lu-DOTA-4P(FAPI)4], in the data set on HT-1080-FAP tumors [1] (HT-1080-FAP tumor-bearing mice, 29.6 MBq), the “systemic toxicity by monitoring body weight” value is recorded as “No systemic toxicity”. Moreover, the “tumor growth after radioligand therapy” value in the data set with HT-1080-FAP tumors [1] (HT-1080-FAP, single dose 29.6 MBq) is reported as “significant inhibition of tumor growth”. Besides, the “hematoxylin and eosin staining of selected nontarget organs” value in the data set with HT-1080-FAP tumors [1] (organs collected on day 22, versus control) was “no differences between the control and radioligand therapy groups”. The kidney uptake in the data set with HT-1080-FAP tumors [2] (setting [4]) is given as 6.6 ± 0.2 %ID/g. This molecule also registered a liver uptake with HT-1080-FAP tumors [2] (setting [4]) of 6.3 ± 0.5 %ID/g. In addition, the spleen uptake with HT-1080-FAP tumors [2] (setting [4]) stood at 5.1 ± 0.7 %ID/g. Further, the tumor uptake in the data set on HT-1080-FAP tumors [2] (24 h after injection) stood at 21.4 ± 1.7 %ID/g; in the data set on HT-1080-FAP tumors [2] (48 h after injection), 19.2 ± 0.6 %ID/g; with HT-1080-FAP tumors [2] (72 h after injection), 18.8 ± 2.1 %ID/g; in the data set on HT-1080-FAP tumors [2] (96 h after injection), 14.8 ± 0.9 %ID/g. Besides, the median survival entry with U87MG tumors was “not reached”. In the data set on U87MG tumors (day 14 after treatment), the tumor volume came to 140.28 ± 76.36 mm^3. For the same molecule, the “in vitro stability (demetallation / free radioactivity)” value is on record as “highly stable” in data set [3] and “neither significant demetallation nor free radioactivity was observed” in data set [3] (listed as 177Lu-DOTA-4P[FAPI]4).
